Experimental data from patent US11608330B2, “Methylamine derivatives as lysysl oxidase inhibitors for the treatment of cancer” (The Institute of Cancer Research: Royal Cancer Hospital, priority 2016, dated 2023).

What was measured:
[1] = test system: MATN2 in MDA-MB-231 cells; assay: MATN2 level in MDA-MB-231 cells; type: cell-based, human; conditions: at a much higher concentration
Method: Proteins were extracted from cultured cells using cell lysis buffer (Cell Signalling Technology) with the addition of protease and phosphatase inhibitor cocktails (Pierce). Protein concentrations were measured using Pierce 660 nm protein assay reagent and SpectaMax M5 plate reader. […] Separated proteins were transferred to nitrocellulose membranes using a Trans-Blot turbo transfer system (Bio-Rad). Following blocking with Odyssey blocking buffer (Li—COR), membranes were incubated with two primary antibodies of different species at 4° C. over night. Corresponding fluorescence secondary antibodies (Li—COR) of different excitation and emission wavelengths were used to visualize the protein of interest on an Odyssey CLx infrared imaging system (Li—COR). Quantification of band fluorescent intensity was achieved using Li-COR ImageStudio. The following primary antibodies were used, anti-LOX (Sigma), anti-human MATN2 (R&D), anti-EGFR and anti-pY1068EGFR (Cell Signalling Technology), and anti-GAPDH (Millipore).

[2] = test system: TGF beta signalling (pSMAD2); type: cell-based

N#CCCN [BAPN, beta-aminopropionitrile]
reduction of MATN2 [1]: same effect | TGF beta signalling as indicated by pSMAD2 [2]: increased TGF beta signalling
